“And” between values parts separate entries of the source, which are not always exact repeats. Equal entries are not always repeated.
Columns and labels:
Sprague–Dawley rats [1] = assay: Dose-range finding study in rats, clinical chemistry; assay type: in vivo, rat; conditions: for ALT (GPT) / Albumin / Albumin/ globulin ratio / Alkaline phosphatase / Bile acids / Bilirubin total / Calcium / Chloride / Cholesterol / Creatine kinase / Creatinine / GLDH / Globulin / Glucose / Inorganic phosphate / Potassium / Sodium / Total protein / Triglycerides / Urea (BUN): day 8
Procedure: (§1) TPT-004 was formulated in 0.5% (w/v) CMC-Na in water and administered by oral gavage (PO) twice daily (b.i.d.) with a 12 h interval to the treatment groups (3 male and 3 female Sprague–Dawley rats each) for 8 days (15 successive applications). Rats were dosed with 10, 45, and 200 mg/kg, i.e., daily doses of 20, 90, and 400 mg/kg. In addition, a control group was dosed at the same frequency as the vehicle (0.5% CMC-Na).
A blood sample of 100 μL was obtained from each rat by puncturing one of the lateral tail veins under short isoflurane anesthesia. Blood was collected in tubes containing lithium heparin and gently mixed. After centrifugation (10 min at 3000g, 4 °C), plasma was separated and stored at −20 °C until LC-MS analysis. In addition, on day 8, the rats were exsanguinated by cardiac puncture under isoflurane anesthesia. A volume of 100 μL of blood (K3-EDTA) was used for immediate cell blood count, while the rest of the blood was mixed with lithium heparin and centrifuged to generate plasma for clinical chemistry analysis.

Sprague–Dawley rats [2] = assay: Dose-range finding study in rats, necropsy and organ weight; assay type: in vivo, rat; conditions: for Organ weight, Brain / Organ weight, Heart / Organ weight, Kidney / Organ weight, Liver / Organ weight, Lung / Organ weight, Ovary (n=3 per group) / Organ weight, Spleen / Organ weight, Testis (n=3 per group): day 8
Procedure: as §1
Blood samples were collected as described below. The animal sacrifice (exsanguination) was performed on day 8. During the necropsy, the selected organs were collected, weighed, and shipped to a third-party laboratory for histopathological examination (as described below).

[3] = test system: Sugen–Hypoxia rat model of pulmonary arterial hypertension; conditions: previous study; cited from earlier work
mice = conditions: 14 days repeated oral treatment, 10 or 50 mg/kg BID, previous study; cited from earlier work
recombinant human TH = molecular target: T1, recombinant human TH (Homo sapiens, UniProt P07101); assay: TH enzymatic activity assay (fluorescence, 96-well); assay type: biochemical
T1 construct: For purification of MBP-tagged full-length PAH and TH; made in house; host or cells: E. coli T7 Express (NEB) with pRARE2
T1 sequence (P07101 whole entry): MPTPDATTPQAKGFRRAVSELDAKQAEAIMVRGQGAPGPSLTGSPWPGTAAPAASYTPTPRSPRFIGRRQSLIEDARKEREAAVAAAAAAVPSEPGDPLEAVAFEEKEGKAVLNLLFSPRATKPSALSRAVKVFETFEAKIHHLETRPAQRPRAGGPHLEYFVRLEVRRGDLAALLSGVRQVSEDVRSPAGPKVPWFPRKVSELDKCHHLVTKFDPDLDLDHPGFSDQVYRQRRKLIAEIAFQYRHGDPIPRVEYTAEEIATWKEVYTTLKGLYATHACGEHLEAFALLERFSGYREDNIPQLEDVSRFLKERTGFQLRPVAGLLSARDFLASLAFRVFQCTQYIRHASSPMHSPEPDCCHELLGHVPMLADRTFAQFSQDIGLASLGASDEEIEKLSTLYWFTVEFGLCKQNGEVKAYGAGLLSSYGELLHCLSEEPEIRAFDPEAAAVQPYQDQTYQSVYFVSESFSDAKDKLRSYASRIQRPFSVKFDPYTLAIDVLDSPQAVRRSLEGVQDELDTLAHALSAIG
Procedure: The TH enzymatic activity assay was performed using a 96-well plate format (Greiner). […] To initiate the reaction, L-Tyr (Fluka) was added (final concentration, 30 μM). The assay contained positive control samples (complete reaction mix, no inhibitor test compound), negative control samples (reaction mix without BH4), and an additional L-Tyr control (reaction mix without BH4, spiked with 25.5 μM or 27 μM L-Tyr) to measure the progression of the enzymatic reaction. All samples were measured in technical triplicates. The TH assay was performed at RT for 30 min. Depletion of the reaction substrate (L-Tyr) was continuously monitored at 240 s intervals by fluorescence measurements (ex.280 nm/em.306 nm) for 12 min using a Tecan Infinite 200 plate reader.
Negative control values (no enzyme or no substrate) were deducted from the positive control (full enzyme activity) and test compound values. Subsequently, the data were normalized (Pos. Ctr. = 100% of the enzyme activity). The results were further analyzed with GraphPad Prism 9 using the nonlinear regression model: log(inhibitor) vs. response−variableslope(fourparameters) which fits the following equation to the data: Y=Bottom+(Top−Bottom)/(1+10^((logIC50−X)×HillSlope))
The IC50 values were calculated from three independent experiments and are given as the mean ± SD.

[4] = 10, 45, or 200 mg/kg BID PO, 8 days

CCn1c(=O)[nH]c(=O)c2c1nc(Cc1cn3cc(C)sc3n1)n2CC1COC1 [TPT-004]
ALT (GPT) (Sprague–Dawley rats [1]; 10 mg/kg PO BID): 49 U/L
Albumin (Sprague–Dawley rats [1]; 10 mg/kg PO BID): 31 g/L
Albumin/ globulin ratio (Sprague–Dawley rats [1]; 10 mg/kg PO BID): 1.33
Alkaline phosphatase (Sprague–Dawley rats [1]; 10 mg/kg PO BID): 402 U/L
Bile acids (Sprague–Dawley rats [1]; 10 mg/kg PO BID): 6.3 µmol/L
Bilirubin total (Sprague–Dawley rats [1]; 10 mg/kg PO BID): 1.7 µmol/L
Calcium (Sprague–Dawley rats [1]; 10 mg/kg PO BID): 2.6 mmol/L
Chloride (Sprague–Dawley rats [1]; 10 mg/kg PO BID): 101 mmol/L
Cholesterol (Sprague–Dawley rats [1]; 10 mg/kg PO BID): 2.25 mmol/L
Creatine kinase (Sprague–Dawley rats [1]; 10 mg/kg PO BID): 406 U/L
Creatinine (Sprague–Dawley rats [1]; 10 mg/kg PO BID): 24 µmol/L
GLDH (Sprague–Dawley rats [1]; 10 mg/kg PO BID): 7 U/L
Globulin (Sprague–Dawley rats [1]; 10 mg/kg PO BID): 23 g/L
Glucose (Sprague–Dawley rats [1]; 10 mg/kg PO BID): 11.2 mmol/L
Inorganic phosphate (Sprague–Dawley rats [1]; 10 mg/kg PO BID): 2.3 mmol/L
Potassium (Sprague–Dawley rats [1]; 10 mg/kg PO BID): 4.7 mmol/L
Sodium (Sprague–Dawley rats [1]; 10 mg/kg PO BID): 143 mmol/L
Total protein (Sprague–Dawley rats [1]; 10 mg/kg PO BID): 54 g/L
Triglycerides (Sprague–Dawley rats [1]; 10 mg/kg PO BID): 1.2 mmol/L
Urea (BUN) (Sprague–Dawley rats [1]; 10 mg/kg PO BID): 6.4 mmol/L
ALT (GPT) (Sprague–Dawley rats [1]; 45 mg/kg PO BID): 52 U/L
Albumin (Sprague–Dawley rats [1]; 45 mg/kg PO BID): 30 g/L
Albumin/ globulin ratio (Sprague–Dawley rats [1]; 45 mg/kg PO BID): 1.34
Alkaline phosphatase (Sprague–Dawley rats [1]; 45 mg/kg PO BID): 434 U/L
Bile acids (Sprague–Dawley rats [1]; 45 mg/kg PO BID): 16.6 µmol/L
Bilirubin total (Sprague–Dawley rats [1]; 45 mg/kg PO BID): 1.7 µmol/L
Calcium (Sprague–Dawley rats [1]; 45 mg/kg PO BID): 2.7 mmol/L
Chloride (Sprague–Dawley rats [1]; 45 mg/kg PO BID): 101 mmol/L
Cholesterol (Sprague–Dawley rats [1]; 45 mg/kg PO BID): 2.5 mmol/L
Creatine kinase (Sprague–Dawley rats [1]; 45 mg/kg PO BID): 415 U/L
Creatinine (Sprague–Dawley rats [1]; 45 mg/kg PO BID): 26 µmol/L
GLDH (Sprague–Dawley rats [1]; 45 mg/kg PO BID): 6 U/L
Globulin (Sprague–Dawley rats [1]; 45 mg/kg PO BID): 23 g/L
Glucose (Sprague–Dawley rats [1]; 45 mg/kg PO BID): 12.3 mmol/L
Inorganic phosphate (Sprague–Dawley rats [1]; 45 mg/kg PO BID): 2.4 mmol/L
Potassium (Sprague–Dawley rats [1]; 45 mg/kg PO BID): 4.7 mmol/L
Sodium (Sprague–Dawley rats [1]; 45 mg/kg PO BID): 142 mmol/L
Total protein (Sprague–Dawley rats [1]; 45 mg/kg PO BID): 53 g/L
Triglycerides (Sprague–Dawley rats [1]; 45 mg/kg PO BID): 1.7 mmol/L
Urea (BUN) (Sprague–Dawley rats [1]; 45 mg/kg PO BID): 6.0 mmol/L
ALT (GPT) (Sprague–Dawley rats [1]; 200 mg/kg PO BID): 67 U/L
Albumin (Sprague–Dawley rats [1]; 200 mg/kg PO BID): 30 g/L
Albumin/ globulin ratio (Sprague–Dawley rats [1]; 200 mg/kg PO BID): 1.32
Alkaline phosphatase (Sprague–Dawley rats [1]; 200 mg/kg PO BID): 313 U/L
Bile acids (Sprague–Dawley rats [1]; 200 mg/kg PO BID): 20.4 µmol/L
Bilirubin total (Sprague–Dawley rats [1]; 200 mg/kg PO BID): 1.7 µmol/L
Calcium (Sprague–Dawley rats [1]; 200 mg/kg PO BID): 2.6 mmol/L
Chloride (Sprague–Dawley rats [1]; 200 mg/kg PO BID): 101 mmol/L
Cholesterol (Sprague–Dawley rats [1]; 200 mg/kg PO BID): 2.6 mmol/L
Creatine kinase (Sprague–Dawley rats [1]; 200 mg/kg PO BID): 321 U/L
Creatinine (Sprague–Dawley rats [1]; 200 mg/kg PO BID): 24 µmol/L
GLDH (Sprague–Dawley rats [1]; 200 mg/kg PO BID): 7 U/L
Globulin (Sprague–Dawley rats [1]; 200 mg/kg PO BID): 23 g/L
Glucose (Sprague–Dawley rats [1]; 200 mg/kg PO BID): 13.5 mmol/L
Inorganic phosphate (Sprague–Dawley rats [1]; 200 mg/kg PO BID): 2.4 mmol/L
Potassium (Sprague–Dawley rats [1]; 200 mg/kg PO BID): 4.9 mmol/L
Sodium (Sprague–Dawley rats [1]; 200 mg/kg PO BID): 143 mmol/L
Total protein (Sprague–Dawley rats [1]; 200 mg/kg PO BID): 53 g/L
Triglycerides (Sprague–Dawley rats [1]; 200 mg/kg PO BID): 1.4 mmol/L
Urea (BUN) (Sprague–Dawley rats [1]; 200 mg/kg PO BID): 7.0 mmol/L
clinical chemistry parameters, overall (Sprague–Dawley rats [1]; [4]): no relevant difference
Organ weight, Brain (Sprague–Dawley rats [2]; 10 mg/kg PO BID): 6.8 g/kg body weight
Organ weight, Heart (Sprague–Dawley rats [2]; 10 mg/kg PO BID): 3.5 g/kg body weight
Organ weight, Kidney (Sprague–Dawley rats [2]; 10 mg/kg PO BID): 3.8 g/kg body weight
Organ weight, Liver (Sprague–Dawley rats [2]; 10 mg/kg PO BID): 39.4 g/kg body weight
Organ weight, Lung (Sprague–Dawley rats [2]; 10 mg/kg PO BID): 5.3 g/kg body weight
Organ weight, Ovary (n=3 per group) (Sprague–Dawley rats [2]; 10 mg/kg PO BID): 0.72 g/kg body weight
Organ weight, Spleen (Sprague–Dawley rats [2]; 10 mg/kg PO BID): 2.9 g/kg body weight
Organ weight, Testis (n=3 per group) (Sprague–Dawley rats [2]; 10 mg/kg PO BID): 8.7 g/kg body weight
Organ weight, Brain (Sprague–Dawley rats [2]; 45 mg/kg PO BID): 6.5 g/kg body weight
Organ weight, Heart (Sprague–Dawley rats [2]; 45 mg/kg PO BID): 3.6 g/kg body weight
Organ weight, Kidney (Sprague–Dawley rats [2]; 45 mg/kg PO BID): 3.6 g/kg body weight
Organ weight, Liver (Sprague–Dawley rats [2]; 45 mg/kg PO BID): 42.1 g/kg body weight
Organ weight, Lung (Sprague–Dawley rats [2]; 45 mg/kg PO BID): 5.2 g/kg body weight
Organ weight, Ovary (n=3 per group) (Sprague–Dawley rats [2]; 45 mg/kg PO BID): 0.55 g/kg body weight
Organ weight, Spleen (Sprague–Dawley rats [2]; 45 mg/kg PO BID): 2.8 g/kg body weight
Organ weight, Testis (n=3 per group) (Sprague–Dawley rats [2]; 45 mg/kg PO BID): 8.1 g/kg body weight
Organ weight, Brain (Sprague–Dawley rats [2]; 200 mg/kg PO BID): 6.7 g/kg body weight
Organ weight, Heart (Sprague–Dawley rats [2]; 200 mg/kg PO BID): 3.6 g/kg body weight
Organ weight, Kidney (Sprague–Dawley rats [2]; 200 mg/kg PO BID): 4.0 g/kg body weight
Organ weight, Lung (Sprague–Dawley rats [2]; 200 mg/kg PO BID): 5.2 g/kg body weight
Organ weight, Ovary (n=3 per group) (Sprague–Dawley rats [2]; 200 mg/kg PO BID): 0.65 g/kg body weight
Organ weight, Spleen (Sprague–Dawley rats [2]; 200 mg/kg PO BID): 2.8 g/kg body weight
Organ weight, Testis (n=3 per group) (Sprague–Dawley rats [2]; 200 mg/kg PO BID): 8.4 g/kg body weight
Organ weight, Liver (Sprague–Dawley rats [2]; 200 mg/kg PO BID, vehicle 41.2 ± 2.2, p = 0.0128): 45.2 g/kg body weight and 45.2 ± 1.2 g/kg body weight
gross lesions at necropsy (Sprague–Dawley rats [2]; [4]): No test-item-related gross lesions
weight of the organs, vehicle vs treatment groups, overall (Sprague–Dawley rats [2]; 10, 45 or 200 mg/kg BID PO, 8 days, except liver at 200 mg/kg BID): No significant difference
dose needed to achieve the therapeutic effects [3]: 10 mg/kg BID
neuropsychiatric effects in behavioral tests (mice): no neuropsychiatric effects were observed
Mean TH activity [%] (recombinant human TH; 10 nM): 92.60%
IC50 (recombinant human TH; 10 nM to 30 μM, 30 μM L-Tyr, 5 μM BH4): 1360 nM
Mean TH activity [%] (recombinant human TH; 30 nM): 90.14%
Mean TH activity [%] (recombinant human TH; 100 nM): 95.57%
Mean TH activity [%] (recombinant human TH; 300 nM): 86.81%
Mean TH activity [%] (recombinant human TH; 1 μM): 58.14%
Mean TH activity [%] (recombinant human TH; 3 μM): 28.97%
Mean TH activity [%] (recombinant human TH; 10 μM): 6.59%
Mean TH activity [%] (recombinant human TH; 30 μM): -6.30%
Selectivity ratio TH IC50 : TPH1 IC50 (recombinant human TH; calculated from determined IC50 values): 40.71
IC50 (recombinant human TH; supplementary CSV): 1360 nM
